From patent publication US9359358B2, “Cyclohexyl azetidine derivatives as JAK inhibitors” (Incyte Holdings Corporation, priority 2011, dated 2016)
Counter-ions that a name gives are not always drawn.

Legend:
human JAK2 = target: T1, human JAK2 (Homo sapiens, UniProt O60674); assay: In Vitro JAK Kinase Assay (HTRF, phosphorylation of a biotinylated peptide), JAK2; format: biochemical; conditions: assay of Example A
T1 construct: JAK2 (a.a. 828-1132); His tag (N); made in house; host or cells: insect cells (baculovirus)
T1 sequence (O60674 828-1132): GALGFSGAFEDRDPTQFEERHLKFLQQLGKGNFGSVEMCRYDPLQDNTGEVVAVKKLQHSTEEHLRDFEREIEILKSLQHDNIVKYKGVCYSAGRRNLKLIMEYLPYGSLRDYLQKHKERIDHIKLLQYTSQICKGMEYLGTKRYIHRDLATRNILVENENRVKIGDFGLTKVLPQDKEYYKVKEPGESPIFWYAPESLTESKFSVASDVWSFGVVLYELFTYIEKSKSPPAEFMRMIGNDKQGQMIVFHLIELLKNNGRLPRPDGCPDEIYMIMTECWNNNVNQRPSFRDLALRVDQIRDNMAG
Summary of the method: (§1)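 HTRF detection (SA-APC plus Eu-labeled anti-phosphotyrosine Py20, 40 min after EDTA stop) quantified biotinylated-peptide phosphorylation. Kinase reactions with human JAK1 or JAK2 catalytic domains lasted 1 h at room temperature.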

human JAK1 = target: T2, human JAK1 (Homo sapiens, UniProt P23458); assay: In Vitro JAK Kinase Assay (HTRF, phosphorylation of a biotinylated peptide), JAK1; format: biochemical; conditions: catalytic domain a.a. 837-1142, assay of Example A
T2 construct: human JAK1 (a.a. 837-1142); His tag (N); made in house; host or cells: insect cells (baculovirus)
T2 sequence (P23458 849-1154): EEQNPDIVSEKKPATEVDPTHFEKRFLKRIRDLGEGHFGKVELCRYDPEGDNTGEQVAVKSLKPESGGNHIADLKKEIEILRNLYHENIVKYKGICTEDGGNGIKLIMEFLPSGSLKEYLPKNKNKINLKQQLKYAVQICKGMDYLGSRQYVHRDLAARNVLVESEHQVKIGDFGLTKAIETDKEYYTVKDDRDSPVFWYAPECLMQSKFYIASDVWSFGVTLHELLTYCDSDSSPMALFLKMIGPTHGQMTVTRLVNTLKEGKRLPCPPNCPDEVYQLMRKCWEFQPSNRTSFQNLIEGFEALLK
Summary of the method: as §1

## CC(C)(F)c1cc(O[C@H]2CC[C@@H](N3CC(CC#N)(n4cc(-c5ncnc6[nH]ccc56)cn4)C3)CC2)nc(C(F)(F)F)n1.O=C(O)C(F)(F)F.O=C(O)C(F)(F)F [Example 61, {1-(cis-4-{[6-(1-fluoro-1-methylethyl)-2-(trifluoromethyl)pyrimidin-4-yl]oxy}cyclohexyl)-3-[4-(7H-pyrrolo[2,3-d]pyrimidin-4-yl)-1H-pyrazol-1-yl]azetidin-3-yl}acetonitrile bis(trifluoroacetate)]
Human JAK2; Table 4
  JAK2/JAK1 IC50 ratio: ≧10
Human JAK1; Table 4
  IC50: < 10 nM

## CC(C)(CO)c1cc(O[C@H]2CC[C@@H](N3CC(CC#N)(n4cc(-c5ncnc6[nH]ccc56)cn4)C3)CC2)nc(C(F)(F)F)n1 [Example 62, {1-(cis-4-{[6-(2-hydroxy-1,1-dimethylethyl)-2-(trifluoromethyl)pyrimidin-4-yl]oxy}cyclohexyl)-3-[4-(7H-pyrrolo[2,3-d]pyrimidin-4-yl)-1H-pyrazol-1-yl]azetidin-3-yl}acetonitrile tris(trifluoroacetate) (salt)]
Human JAK2; Table 4
  JAK2/JAK1 IC50 ratio: ≧10
Human JAK1; Table 4
  IC50: < 10 nM

## N#CCC1(n2cc(-c3ncnc4[nH]ccc34)cn2)CN([C@H]2CC[C@@H](Oc3cc(C4(CO)CC4)nc(C(F)(F)F)n3)CC2)C1 [Example 63, {1-(cis-4-{[6-[1-(hydroxymethyl)cyclopropyl]-2-(trifluoromethyl)pyrimidin-4-yl]oxy}cyclohexyl)-3-[4-(7H-pyrrolo[2,3-d]pyrimidin-4-yl)-1H-pyrazol-1-yl]azetidin-3-yl}acetonitrile bis(trifluoroacetate) (salt)]
Human JAK2; Table 4
  JAK2/JAK1 IC50 ratio: ≧10
Human JAK1; Table 4
  IC50: < 10 nM

## N#CCC1(n2cc(-c3ncnc4[nH]ccc34)cn2)CN([C@H]2CC[C@@H](Oc3cc(CO)cc(C(F)(F)F)n3)CC2)C1 [Example 64, {1-(cis-4-{[4-(hydroxymethyl)-6-(trifluoromethyl)pyridin-2-yl]oxy}cyclohexyl)-3-[4-(7H-pyrrolo[2,3-d]pyrimidin-4-yl)-1H-pyrazol-1-yl]azetidin-3-yl}acetonitrile bis(trifluoroacetate)]
Human JAK2; Table 5
  JAK2/JAK1 IC50 ratio: ≧10
Human JAK1; Table 5
  IC50: < 10 nM

## CCNCc1cc(O[C@H]2CC[C@@H](N3CC(CC#N)(n4cc(-c5ncnc6[nH]ccc56)cn4)C3)CC2)nc(C(F)(F)F)c1 [Example 65, {1-(cis-4-{[4-[(ethylamino)methyl]-6-(trifluoromethyl)pyridin-2-yl]oxy}cyclohexyl)-3-[4-(7H-pyrrolo[2,3-d]pyrimidin-4-yl)-1H-pyrazol-1-yl]azetidin-3-yl}acetonitrile tris(trifluoroacetate)]
Human JAK2; Table 5
  JAK2/JAK1 IC50 ratio: ≧10
Human JAK1; Table 5
  IC50: < 10 nM

## N#CCC1(n2cc(-c3ncnc4[nH]ccc34)cn2)CN([C@H]2CC[C@@H](Oc3cc(CN)cc(C(F)(F)F)n3)CC2)C1 [Example 66, {1-(cis-4-{[4-(aminomethyl)-6-(trifluoromethyl)pyridin-2-yl]oxy}cyclohexyl)-3-[4-(7H-pyrrolo[2,3-d]pyrimidin-4-yl)-1H-pyrazol-1-yl]azetidin-3-yl}acetonitrile tris(trifluoroacetate)]
Human JAK2; Table 5
  JAK2/JAK1 IC50 ratio: ≧10
Human JAK1; Table 5
  IC50: < 10 nM

## CNCc1cc(O[C@H]2CC[C@@H](N3CC(CC#N)(n4cc(-c5ncnc6[nH]ccc56)cn4)C3)CC2)nc(C(F)(F)F)c1 [Example 67, {1-(cis-4-{[4-[(methylamino)methyl]-6-(trifluoromethyl)pyridin-2-yl]oxy}cyclohexyl)-3-[4-(7H-pyrrolo[2,3-d]pyrimidin-4-yl)-1H-pyrazol-1-yl]azetidin-3-yl}acetonitrile tris(trifluoroacetate)]
Human JAK2; Table 5
  JAK2/JAK1 IC50 ratio: ≧10
Human JAK1; Table 5
  IC50: < 10 nM

## CN(C)Cc1cc(O[C@H]2CC[C@@H](N3CC(CC#N)(n4cc(-c5ncnc6[nH]ccc56)cn4)C3)CC2)nc(C(F)(F)F)c1 [Example 68, {1-(cis-4-{[4-[(dimethylamino)methyl]-6-(trifluoromethyl)pyridin-2-yl]oxy}cyclohexyl)-3-[4-(7H-pyrrolo[2,3-d]pyrimidin-4-yl)-1H-pyrazol-1-yl]azetidin-3-yl}acetonitrile tris(trifluoroacetate)]
Human JAK2; Table 5
  JAK2/JAK1 IC50 ratio: ≧10
Human JAK1; Table 5
  IC50: < 10 nM

## CC(C)(O)c1cc(O[C@H]2CC[C@@H](N3CC(CC#N)(n4cc(-c5ncnc6[nH]ccc56)cn4)C3)CC2)nc(C(F)(F)F)c1 [Example 69, {1-(cis-4-{[4-(1-hydroxy-1-methylethyl)-6-(trifluoromethyl)pyridin-2-yl]oxy}cyclohexyl)-3-[4-(7H-pyrrolo[2,3-d]pyrimidin-4-yl)-1H-pyrazol-1-yl]azetidin-3-yl}acetonitrile bis(trifluoroacetate)]
Human JAK2; Table 5
  JAK2/JAK1 IC50 ratio: ≧10
Human JAK1; Table 5
  IC50: < 10 nM

## N#CCC1(n2cc(-c3ncnc4[nH]ccc34)cn2)CN([C@H]2CC[C@@H](Oc3cc(CNCCCO)cc(C(F)(F)F)n3)CC2)C1 [Example 70, {1-(cis-4-{[4-{[(3-hydroxypropyl)amino]methyl}-6-(trifluoromethyl)pyridin-2-yl]oxy}cyclohexyl)-3-[4-(7H-pyrrolo[2,3-d]pyrimidin-4-yl)-1H-pyrazol-1-yl]azetidin-3-yl}acetonitrile tris(trifluoroacetate)]
Human JAK2; Table 5
  JAK2/JAK1 IC50 ratio: ≧10
Human JAK1; Table 5
  IC50: < 10 nM

## N#CCC1(n2cc(-c3ncnc4[nH]ccc34)cn2)CN([C@H]2CC[C@@H](Oc3cc(CNC4CC4)cc(C(F)(F)F)n3)CC2)C1 [Example 72, {1-(cis-4-{[4-[(cyclopropylamino)methyl]-6-(trifluoromethyl)pyridin-2-yl]oxy}cyclohexyl)-3-[4-(7H-pyrrolo[2,3-d]pyrimidin-4-yl)-1H-pyrazol-1-yl]azetidin-3-yl}acetonitrile tris(trifluoroacetate)]
Human JAK2; Table 5
  JAK2/JAK1 IC50 ratio: ≧10
Human JAK1; Table 5
  IC50: < 20 nM

## C[C@@H](CO)NCc1cc(O[C@H]2CC[C@@H](N3CC(CC#N)(n4cc(-c5ncnc6[nH]ccc56)cn4)C3)CC2)nc(C(F)(F)F)c1 [Example 73, {1-(cis-4-{[4-({[(1S)-2-hydroxy-1-methylethyl]amino}methyl)-6-(trifluoromethyl)pyridin-2-yl]oxy}cyclohexyl)-3-[4-(7H-pyrrolo[2,3-d]pyrimidin-4-yl)-1H-pyrazol-1-yl]azetidin-3-yl}acetonitrile tris(trifluoroacetate)]
Human JAK2; Table 5
  JAK2/JAK1 IC50 ratio: ≧10
Human JAK1; Table 5
  IC50: < 10 nM

## N#CCC1(n2cc(-c3ncnc4[nH]ccc34)cn2)CN([C@H]2CC[C@@H](Oc3cc(CNCCO)cc(C(F)(F)F)n3)CC2)C1 [Example 74, {1-(cis-4-{[4-{[(2-hydroxyethyl)amino]methyl}-6-(trifluoromethyl)pyridin-2-yl]oxy}cyclohexyl)-3-[4-(7H-pyrrolo[2,3-d]pyrimidin-4-yl)-1H-pyrazol-1-yl]azetidin-3-yl}acetonitrile tris(trifluoroacetate)]
Human JAK2; Table 5
  JAK2/JAK1 IC50 ratio: ≧10
Human JAK1; Table 5
  IC50: < 10 nM

## C[C@H](CO)NCc1cc(O[C@H]2CC[C@@H](N3CC(CC#N)(n4cc(-c5ncnc6[nH]ccc56)cn4)C3)CC2)nc(C(F)(F)F)c1 [Example 75, {1-(cis-4-{[4-({[(1R)-2-hydroxy-1-methylethyl]amino}methyl)-6-(trifluoromethyl)pyridin-2-yl]oxy}cyclohexyl)-3-[4-(7H-pyrrolo[2,3-d]pyrimidin-4-yl)-1H-pyrazol-1-yl]azetidin-3-yl}acetonitrile tris(trifluoroacetate)]
Human JAK2; Table 5
  JAK2/JAK1 IC50 ratio: ≧10
Human JAK1; Table 5
  IC50: < 10 nM

## N#CCC1(n2cc(-c3ncnc4[nH]ccc34)cn2)CN([C@H]2CC[C@@H](Oc3cc(CNCC4CC4)cc(C(F)(F)F)n3)CC2)C1 [Example 76, {1-(cis-4-{[4-{[(cyclopropylmethyl)amino]methyl}-6-(trifluoromethyl)pyridin-2-yl]oxy}cyclohexyl)-3-[4-(7H-pyrrolo[2,3-d]pyrimidin-4-yl)-1H-pyrazol-1-yl]azetidin-3-yl}acetonitrile tris(trifluoroacetate)]
Human JAK2; Table 5
  JAK2/JAK1 IC50 ratio: ≧10
Human JAK1; Table 5
  IC50: < 10 nM

## N#CCC1(n2cc(-c3ncnc4[nH]ccc34)cn2)CN([C@H]2CC[C@@H](Oc3cc(CNC4CCC4)cc(C(F)(F)F)n3)CC2)C1 [Example 77, {1-(cis-4-{[4-[(cyclobutylamino)methyl]-6-(trifluoromethyl)pyridin-2-yl]oxy}cyclohexyl)-3-[4-(7H-pyrrolo[2,3-d]pyrimidin-4-yl)-1H-pyrazol-1-yl]azetidin-3-yl}acetonitrile tris(trifluoroacetate)]
Human JAK2; Table 5
  JAK2/JAK1 IC50 ratio: ≧10
Human JAK1; Table 5
  IC50: < 10 nM

## N#CCC1(n2cc(-c3ncnc4[nH]ccc34)cn2)CN([C@H]2CC[C@@H](Oc3cc(CN4CCC4)cc(C(F)(F)F)n3)CC2)C1 [Example 78, {1-(cis-4-{[4-(azetidin-1-ylmethyl)-6-(trifluoromethyl)pyridin-2-yl]oxy}cyclohexyl)-3-[4-(7H-pyrrolo[2,3-d]pyrimidin-4-yl)-1H-pyrazol-1-yl]azetidin-3-yl}acetonitrile tris(trifluoroacetate)]
Human JAK2; Table 5
  JAK2/JAK1 IC50 ratio: ≧10
Human JAK1; Table 5
  IC50: < 10 nM

## N#CCC1(n2cc(-c3ncnc4[nH]ccc34)cn2)CN([C@H]2CC[C@@H](Oc3cc(CN4CC(O)C4)cc(C(F)(F)F)n3)CC2)C1 [Example 79, {1-(cis-4-{[4-[(3-hydroxyazetidin-1-yl)methyl]-6-(trifluoromethyl)pyridin-2-yl]oxy}cyclohexyl)-3-[4-(7H-pyrrolo[2,3-d]pyrimidin-4-yl)-1H-pyrazol-1-yl]azetidin-3-yl}acetonitrile tris(trifluoroacetate)]
Human JAK2; Table 5
  JAK2/JAK1 IC50 ratio: ≧10
Human JAK1; Table 5
  IC50: < 10 nM

## CNC(=O)c1cc(O[C@H]2CC[C@@H](N3CC(CC#N)(n4cc(-c5ncnc6[nH]ccc56)cn4)C3)CC2)nc(C(F)(F)F)c1 [Example 80, 2-[(cis-4-{3-(cyanomethyl)-3-[4-(7H-pyrrolo[2,3-d]pyrimidin-4-yl)-1H-pyrazol-1-yl]azetidin-1-yl}cyclohexyl)oxy]-N-methyl-6-(trifluoromethyl)isonicotinamide bis(trifluoroacetate)]
Human JAK2; Table 5
  JAK2/JAK1 IC50 ratio: ≧10
Human JAK1; Table 5
  IC50: < 10 nM
